Measurements taken from the supplement of paper PMC10307832.

Experiments:
Assay in all cases: relative viability (nuclei count vs DMSO), 5 days (fraction); higher = more cells survive
[1] = compound: CN(C)C[C@@H]1CCn2cc(c3ccccc32)C2=C(C(=O)NC2=O)c2cn(c3ccccc23)CCO1 [Ruboxistaurin] + CC(=O)c1c(C)c2cnc(Nc3ccc(N4CCNCC4)cn3)nc2n(C2CCCC2)c1=O [Palbociclib] (partner 0.5 µM)
In short: (§1)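 One day after seeding in 1536-well plates, lung cancer cell lines were dosed by pin tool. Dosing was either single-drug or a fixed anchor-drug dose plus five library-drug doses (not always all listed) in √10 steps. After 5 days, nuclei were stained in one fix-and-stain step and counted on 4× images, and relative viability is the nuclei count of treated wells over that of vehicle wells, given as the median of duplicate plates.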

[2] = compound: CN(C)C[C@@H]1CCn2cc(c3ccccc32)C2=C(C(=O)NC2=O)c2cn(c3ccccc23)CCO1 [Ruboxistaurin] + CS(=O)(=O)CCNCc1ccc(-c2ccc3ncnc(Nc4ccc(OCc5cccc(F)c5)c(Cl)c4)c3c2)o1 [Lapatinib] (partner 2 µM)
In short: as §1

[3] = compound: CN(C)C[C@@H]1CCn2cc(c3ccccc32)C2=C(C(=O)NC2=O)c2cn(c3ccccc23)CCO1 [Ruboxistaurin] + N=C(N)NC(=N)NCCc1ccccc1 [Phenformin] (partner 250 µM)
In short: as §1

[4] = compound: CN(C)C[C@@H]1CCn2cc(c3ccccc32)C2=C(C(=O)NC2=O)c2cn(c3ccccc23)CCO1 [Ruboxistaurin] + Nc1nc2[nH]cc(CCc3ccc(C(=O)N[C@@H](CCC(=O)O)C(=O)O)cc3)c2c(=O)[nH]1 [Pemetrexed] (partner 0.2 µM)
In short: as §1

Ruboxistaurin + Olaparib = compound: CN(C)C[C@@H]1CCn2cc(c3ccccc32)C2=C(C(=O)NC2=O)c2cn(c3ccccc23)CCO1 [Ruboxistaurin] + O=C(c1cc(Cc2n[nH]c(=O)c3ccccc23)ccc1F)N1CCN(C(=O)C2CC2)CC1 [Olaparib] (partner 8 µM)
In short: as §1

NCI-H2347
relative viability ([1]; first compound 0.08 µM): 0.441
relative viability ([1]; first compound 0.8 µM): 0.425
relative viability ([1]; first compound 2.53 µM): 0.358
relative viability ([1]; first compound 8 µM): 0.42
relative viability ([2]; first compound 0.08 µM): 1.02
relative viability ([2]; first compound 0.8 µM): 0.829
relative viability ([2]; first compound 2.53 µM): 0.934
relative viability ([2]; first compound 8 µM): 0.979
relative viability ([3]; first compound 0.08 µM): 0.557
relative viability ([3]; first compound 0.8 µM): 0.382
relative viability ([3]; first compound 2.53 µM): 0.488
relative viability ([3]; first compound 8 µM): 0.367
relative viability ([4]; first compound 0.08 µM): 0.45
relative viability ([4]; first compound 0.8 µM): 0.413
relative viability ([4]; first compound 2.53 µM): 0.372
relative viability ([4]; first compound 8 µM): 0.44
relative viability (Ruboxistaurin + Olaparib; first compound 0.08 µM): 0.636
relative viability (Ruboxistaurin + Olaparib; first compound 0.8 µM): 0.614
relative viability (Ruboxistaurin + Olaparib; first compound 2.53 µM): 0.581
relative viability (Ruboxistaurin + Olaparib; first compound 8 µM): 0.451

NCI-H2405
relative viability ([1]; first compound 0.08 µM): 0.545
relative viability ([1]; first compound 0.8 µM): 0.538
relative viability ([1]; first compound 2.53 µM): 0.522
relative viability ([1]; first compound 8 µM): 0.486
relative viability ([2]; first compound 0.08 µM): 1.3
relative viability ([2]; first compound 0.8 µM): 1.01
relative viability ([2]; first compound 2.53 µM): 1.19
relative viability ([2]; first compound 8 µM): 1.05
relative viability ([3]; first compound 0.08 µM): 0.427
relative viability ([3]; first compound 0.8 µM): 0.391
relative viability ([3]; first compound 2.53 µM): 0.414
relative viability ([3]; first compound 8 µM): 0.38
relative viability ([4]; first compound 0.08 µM): 1.13
relative viability ([4]; first compound 0.8 µM): 1.04
relative viability ([4]; first compound 2.53 µM): 1.11
relative viability ([4]; first compound 8 µM): 1.01
relative viability (Ruboxistaurin + Olaparib; first compound 0.08 µM): 0.918
relative viability (Ruboxistaurin + Olaparib; first compound 0.8 µM): 0.774
relative viability (Ruboxistaurin + Olaparib; first compound 2.53 µM): 0.878
relative viability (Ruboxistaurin + Olaparib; first compound 8 µM): 0.874

NCI-H3122
relative viability ([1]; first compound 0.08 µM): 0.176
relative viability ([1]; first compound 0.8 µM): 0.149
relative viability ([1]; first compound 2.53 µM): 0.196
relative viability ([1]; first compound 8 µM): 0.336
relative viability ([2]; first compound 0.08 µM): 1.02
relative viability ([2]; first compound 0.8 µM): 1.02
relative viability ([2]; first compound 2.53 µM): 1
relative viability ([2]; first compound 8 µM): 1.08
relative viability ([3]; first compound 0.08 µM): 0.409
relative viability ([3]; first compound 0.8 µM): 0.372
relative viability ([3]; first compound 2.53 µM): 0.413
relative viability ([3]; first compound 8 µM): 0.379
relative viability ([4]; first compound 0.08 µM): 0.191
relative viability ([4]; first compound 0.8 µM): 0.201
relative viability ([4]; first compound 2.53 µM): 0.191
relative viability ([4]; first compound 8 µM): 0.187
relative viability (Ruboxistaurin + Olaparib; first compound 0.08 µM): 0.743
relative viability (Ruboxistaurin + Olaparib; first compound 0.8 µM): 0.581
relative viability (Ruboxistaurin + Olaparib; first compound 2.53 µM): 0.559
relative viability (Ruboxistaurin + Olaparib; first compound 8 µM): 0.572

PC-3 [JPC-3]
relative viability ([1]; first compound 0.08 µM): 0.561
relative viability ([1]; first compound 0.8 µM): 0.487
relative viability ([1]; first compound 2.53 µM): 0.518
relative viability ([1]; first compound 8 µM): 0.556
relative viability ([2]; first compound 0.08 µM): 0.428
relative viability ([2]; first compound 0.8 µM): 0.417
relative viability ([2]; first compound 2.53 µM): 0.44
relative viability ([2]; first compound 8 µM): 0.391
relative viability ([3]; first compound 0.08 µM): 0.471
relative viability ([3]; first compound 0.8 µM): 0.47
relative viability ([3]; first compound 2.53 µM): 0.492
relative viability ([3]; first compound 8 µM): 0.517
relative viability ([4]; first compound 0.08 µM): 1.22
relative viability ([4]; first compound 0.8 µM): 1.09
relative viability ([4]; first compound 2.53 µM): 1.17
relative viability ([4]; first compound 8 µM): 1.04
relative viability (Ruboxistaurin + Olaparib; first compound 0.08 µM): 1.24
relative viability (Ruboxistaurin + Olaparib; first compound 0.8 µM): 1.09
relative viability (Ruboxistaurin + Olaparib; first compound 2.53 µM): 1.08
relative viability (Ruboxistaurin + Olaparib; first compound 8 µM): 1.17

PC-14
relative viability ([1]; first compound 0.08 µM): 0.603
relative viability ([1]; first compound 0.8 µM): 0.452
relative viability ([1]; first compound 2.53 µM): 0.51
relative viability ([1]; first compound 8 µM): 0.528
relative viability ([2]; first compound 0.08 µM): 0.353
relative viability ([2]; first compound 0.8 µM): 0.311
relative viability ([2]; first compound 2.53 µM): 0.302
relative viability ([2]; first compound 8 µM): 0.294
relative viability ([3]; first compound 0.08 µM): 0.675
relative viability ([3]; first compound 0.8 µM): 0.568
relative viability ([3]; first compound 2.53 µM): 0.536
relative viability ([3]; first compound 8 µM): 0.556
relative viability ([4]; first compound 0.08 µM): 0.135
relative viability ([4]; first compound 0.8 µM): 0.136
relative viability ([4]; first compound 2.53 µM): 0.136
relative viability ([4]; first compound 8 µM): 0.115
relative viability (Ruboxistaurin + Olaparib; first compound 0.08 µM): 0.246
relative viability (Ruboxistaurin + Olaparib; first compound 0.8 µM): 0.302
relative viability (Ruboxistaurin + Olaparib; first compound 2.53 µM): 0.364
relative viability (Ruboxistaurin + Olaparib; first compound 8 µM): 0.256

RERF-LC-KJ
relative viability ([1]; first compound 0.08 µM): 1.17
relative viability ([1]; first compound 0.8 µM): 0.934
relative viability ([1]; first compound 2.53 µM): 1.12
relative viability ([1]; first compound 8 µM): 0.995
relative viability ([2]; first compound 0.08 µM): 0.905
relative viability ([2]; first compound 0.8 µM): 0.837
relative viability ([2]; first compound 2.53 µM): 0.781
relative viability ([2]; first compound 8 µM): 0.77
relative viability ([3]; first compound 0.08 µM): 0.458
relative viability ([3]; first compound 0.8 µM): 0.426
relative viability ([3]; first compound 2.53 µM): 0.443
relative viability ([3]; first compound 8 µM): 0.406
relative viability ([4]; first compound 0.08 µM): 0.48
relative viability ([4]; first compound 0.8 µM): 0.46
relative viability ([4]; first compound 2.53 µM): 0.483
relative viability ([4]; first compound 8 µM): 0.446
relative viability (Ruboxistaurin + Olaparib; first compound 0.08 µM): 0.938
relative viability (Ruboxistaurin + Olaparib; first compound 0.8 µM): 0.804
relative viability (Ruboxistaurin + Olaparib; first compound 2.53 µM): 0.942
relative viability (Ruboxistaurin + Olaparib; first compound 8 µM): 0.709

SK-LU-1
relative viability ([1]; first compound 0.08 µM): 0.427
relative viability ([1]; first compound 0.8 µM): 0.342
relative viability ([1]; first compound 2.53 µM): 0.429
relative viability ([1]; first compound 8 µM): 0.381
relative viability ([2]; first compound 0.08 µM): 0.937
relative viability ([2]; first compound 0.8 µM): 0.785
relative viability ([2]; first compound 2.53 µM): 0.996
relative viability ([2]; first compound 8 µM): 0.969
relative viability ([3]; first compound 0.08 µM): 0.61
relative viability ([3]; first compound 0.8 µM): 0.495
relative viability ([3]; first compound 2.53 µM): 0.628
relative viability ([3]; first compound 8 µM): 0.526
relative viability ([4]; first compound 0.08 µM): 0.944
relative viability ([4]; first compound 0.8 µM): 0.913
relative viability ([4]; first compound 2.53 µM): 1.12
relative viability ([4]; first compound 8 µM): 0.954
relative viability (Ruboxistaurin + Olaparib; first compound 0.08 µM): 0.483
relative viability (Ruboxistaurin + Olaparib; first compound 0.8 µM): 0.397
relative viability (Ruboxistaurin + Olaparib; first compound 2.53 µM): 0.536
relative viability (Ruboxistaurin + Olaparib; first compound 8 µM): 0.469

SK-MES-1
relative viability ([1]; first compound 0.08 µM): 0.331
relative viability ([1]; first compound 0.8 µM): 0.27
relative viability ([1]; first compound 2.53 µM): 0.331
relative viability ([1]; first compound 8 µM): 0.361
relative viability ([2]; first compound 0.08 µM): 0.515
relative viability ([2]; first compound 0.8 µM): 0.413
relative viability ([2]; first compound 2.53 µM): 0.5
relative viability ([2]; first compound 8 µM): 0.425
relative viability ([3]; first compound 0.08 µM): 0.678
relative viability ([3]; first compound 0.8 µM): 0.607
relative viability ([3]; first compound 2.53 µM): 0.658
relative viability ([3]; first compound 8 µM): 0.639
relative viability ([4]; first compound 0.08 µM): 0.997
relative viability ([4]; first compound 0.8 µM): 0.899
relative viability ([4]; first compound 2.53 µM): 1.01
relative viability ([4]; first compound 8 µM): 0.863
relative viability (Ruboxistaurin + Olaparib; first compound 0.08 µM): 0.726
relative viability (Ruboxistaurin + Olaparib; first compound 0.8 µM): 0.555
relative viability (Ruboxistaurin + Olaparib; first compound 2.53 µM): 0.905
relative viability (Ruboxistaurin + Olaparib; first compound 8 µM): 0.465

SW 1573
relative viability ([1]; first compound 0.08 µM): 0.433
relative viability ([1]; first compound 0.8 µM): 0.371
relative viability ([1]; first compound 2.53 µM): 0.354
relative viability ([1]; first compound 8 µM): 0.523
relative viability ([2]; first compound 0.08 µM): 1.1
relative viability ([2]; first compound 0.8 µM): 1.12
relative viability ([2]; first compound 2.53 µM): 1.18
relative viability ([2]; first compound 8 µM): 1.03
relative viability ([3]; first compound 0.08 µM): 0.408
relative viability ([3]; first compound 0.8 µM): 0.141
relative viability ([3]; first compound 2.53 µM): 0.445
relative viability ([3]; first compound 8 µM): 0.282
relative viability ([4]; first compound 0.08 µM): 0.923
relative viability ([4]; first compound 0.8 µM): 0.803
relative viability ([4]; first compound 2.53 µM): 0.795
relative viability ([4]; first compound 8 µM): 0.704
relative viability (Ruboxistaurin + Olaparib; first compound 0.08 µM): 0.494
relative viability (Ruboxistaurin + Olaparib; first compound 0.8 µM): 0.369
relative viability (Ruboxistaurin + Olaparib; first compound 2.53 µM): 0.595
relative viability (Ruboxistaurin + Olaparib; first compound 8 µM): 0.482

UMC-11
relative viability ([1]; first compound 0.08 µM): 0.327
relative viability ([1]; first compound 0.8 µM): 0.388
relative viability ([1]; first compound 2.53 µM): 0.289
relative viability ([1]; first compound 8 µM): 0.338
relative viability ([2]; first compound 0.08 µM): 1.03
relative viability ([2]; first compound 0.8 µM): 0.844
relative viability ([2]; first compound 2.53 µM): 0.875
relative viability ([2]; first compound 8 µM): 0.644
relative viability ([3]; first compound 0.08 µM): 0.321
relative viability ([3]; first compound 0.8 µM): 0.33
relative viability ([3]; first compound 2.53 µM): 0.315
relative viability ([3]; first compound 8 µM): 0.354
relative viability ([4]; first compound 0.08 µM): 0.823
relative viability ([4]; first compound 0.8 µM): 0.721
relative viability ([4]; first compound 2.53 µM): 0.688
relative viability ([4]; first compound 8 µM): 0.606
relative viability (Ruboxistaurin + Olaparib; first compound 0.08 µM): 0.554
relative viability (Ruboxistaurin + Olaparib; first compound 0.8 µM): 0.364
relative viability (Ruboxistaurin + Olaparib; first compound 2.53 µM): 0.361
relative viability (Ruboxistaurin + Olaparib; first compound 8 µM): 0.289
